Structures can show the parent of a compound that is named as a salt.

T1 sequence (P34969 whole entry): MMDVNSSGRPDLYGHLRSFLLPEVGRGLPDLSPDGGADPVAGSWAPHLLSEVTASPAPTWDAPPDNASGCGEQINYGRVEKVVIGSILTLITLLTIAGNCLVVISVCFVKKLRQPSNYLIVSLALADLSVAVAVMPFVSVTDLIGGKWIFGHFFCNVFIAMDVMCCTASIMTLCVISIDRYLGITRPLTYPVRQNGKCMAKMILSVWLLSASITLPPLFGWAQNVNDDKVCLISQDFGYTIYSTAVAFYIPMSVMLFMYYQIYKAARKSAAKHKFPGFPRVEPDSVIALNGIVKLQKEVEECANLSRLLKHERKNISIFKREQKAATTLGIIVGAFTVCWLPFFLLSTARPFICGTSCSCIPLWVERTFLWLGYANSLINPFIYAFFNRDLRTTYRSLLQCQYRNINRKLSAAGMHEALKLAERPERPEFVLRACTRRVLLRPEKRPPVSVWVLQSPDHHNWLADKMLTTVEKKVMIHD

The assay concerns the target T1, Human Serotonin Receptor, Subtype 7 (h5HT7) (Homo sapiens, UniProt P34969).
T1 construct: purchased PerkinElmer 6120512; host or cells: CHO cells (membranes)
The assay can be described thus: Radioligand binding, cloned human serotonin receptor subtype 7 (h5HT7) expressed in CHO cells, [125I]LSD. Particulars: h5HT7 in CHO cells on Flashplate; [125I]LSD 0.82 nM; room temperature 240 minutes; triplicate; read-out: 5-HT7 IC-50. How it is done: Radioligand binding assays were performed using the Cloned Human Serotonin Receptor, Subtype 7 (h5HT7), expressed in CHO cells, coated on Flashplate (Basic FlashPlate Cat.: SMP200) from PerkinElmer (Cat.: 6120512). The protocol assay was essentially the recommended protocol in the Technical Data Sheet by PerkinEmer Life and Analytical Sciences. The Mass membrane protein/well was typically 12 μg and the Receptor/well was about 9–10 fmoles. The Flashplate were let equilibrate at room temperature for one hour before the addition of the components of the assay mixture. The binding buffer was: 50 mM Tris-HCl, pH 7.4, containing 10 mM MgCl2, 0.5 mM EDTA and 0.5% BSA. The radioligand was [^125I]LSD at a final concentration of 0.82 nM. Nonspecific binding was determined with 50 μM of Clozapine. The assay volume was 25 μl. TopSeal-A were applied onto Flashplate microplates and they were incubated at room temperature for 240 minutes in darkness. The radioactivity were quantified by liquid scintillation spectrophotometry (Wallac 1450 Microbeta Trilux) with a count delay of 4 minutes prior to counting and a counting time of 30 seconds per well. Competition binding data were analyzed by using the LIGAND program (Munson and Rodbard, LIGAND: A versatile, computerized approach for characterization of ligand-binding systems. Anal. Biochem. 107: 220–239, 1980) and assays were performed in triplicate determinations for each point.
Consider `O=S(=O)(NCCCN1CCc2ccccc2C1)c1cccc2ccccc12` [Compound 33, Naphthalene-1-sulfonic acid[3-(3,4-dihydro-1H-isoquinolin-2-yl)-propyl]-amide hydrochloride], for which the IC50 came to 0.384 µM.

As for `O=S(=O)(NCCCN1CCc2ccccc2C1)c1ccccc1` [Compound 35, N-[3-(3,4-Dihydro-1H-isoquinolin-2-yl)-propyl]-benzenesulfonamidehydrochloride], the IC50 amounted to 0.136 µM.

`COc1cc(C)c(S(=O)(=O)NCCCN2CCc3ccccc3C2)c(C)c1C` [Compound 40, N-[3-(3,4-Dihydro-1H-isoquinolin-2-yl)-propyl]-4-methoxy-2,3,6-trimethyl-benzenesulfonamidehydrochloride]: the IC50 was determined as 0.112 µM.

Turning to `COc1cc2c(cc1OC)CN(CCCNS(=O)(=O)c1cc(Cl)ccc1Cl)CC2` [Compound 43, 2,5-Dichloro-N-[3-(6,7-dimethoxy-3,4-dihydro-1H-isoquinolin-2-yl)-propyl]-benzenesulfonamidehydrochloride], the IC50 came out at 0.0895 µM.

For `COc1cc2c(cc1OC)CN(CCCNS(=O)(=O)c1cc(Cl)c(F)cc1F)CC2` [Compound 48, 5-Chloro-N-[3-(6,7-dimethoxy-3,4-dihydro-1H-isoquinolin-2-yl)-propyl]-2,4-difluoro-benzenesulfonamide], the IC50 worked out at 0.0648 µM.

For the origin of these results see US7211584B2, “5-HT7 receptor ligands” (Laboratorios del Dr. Esteve, S.A., priority 2004, dated 2007).
